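How tested: cells in 96-well plates exposed to compound for 48 hours at five concentrations. TGI marks complete inhibition of growth.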

Among the test systems are HCC-2998 colon; CAKI-1 renal; UACC-257 melanoma; RXF 393 renal; KM12 colon; HCT-116 colon; SK-MEL-2 melanoma; M14 melanoma; SF-539 CNS; 786-0 renal; ACHN renal; SK-MEL-5 melanoma; HT29 colon; SW-620 colon; NCI-H23 lung; A498 renal.
Holding throughout (assay): NCI-60 cell line screen, 48 h

Take `COC(=O)C(C(=O)Cc1ccccc1[N+](=O)[O-])C(=O)OC`: the TGI in the experiment on HCC-2998 colon, in the experiment with CAKI-1 renal, in the experiment with UACC-257 melanoma, with RXF 393 renal, with KM12 colon and in the experiment with HCT-116 colon was greater than 100 µM in each case. The TGI in the experiment with SK-MEL-2 melanoma, in the experiment with M14 melanoma, in the experiment with SF-539 CNS, with 786-0 renal, with ACHN renal and with SK-MEL-5 melanoma was greater than 100 µM throughout. Further, the TGI in the experiment on HT29 colon, in the experiment on SW-620 colon and with NCI-H23 lung was greater than 100 µM each time.

On to `C=CN1C(=O)[C@H](Oc2ccccc2)[C@@H]1c1ccccc1`, for which the TGI in the experiment with HCC-2998 colon is greater than 100 µM; in the experiment with A498 renal it was greater than 100 µM; in the experiment with UACC-257 melanoma, greater than 100 µM; in the experiment on RXF 393 renal, 52.5 µM; in the experiment with KM12 colon, greater than 100 µM; in the experiment with HCT-116 colon it was greater than 100 µM. Moreover, the TGI in the experiment on SK-MEL-2 melanoma was greater than 100 µM; with M14 melanoma it was greater than 100 µM; in the experiment on SF-539 CNS, 31.1 µM; in the experiment with 786-0 renal, 33.1 µM; in the experiment with ACHN renal, greater than 100 µM; in the experiment with SK-MEL-5 melanoma, greater than 100 µM. Besides, the TGI in the experiment with HT29 colon was 69.4 µM; in the experiment on SW-620 colon it was greater than 100 µM; in the experiment on NCI-H23 lung, 60 µM.

In the case of `COc1ccc(/C=C(\C(C)=O)C(=O)Nc2ccccc2)cc1`, the TGI with HCC-2998 colon, in the experiment with CAKI-1 renal, in the experiment with UACC-257 melanoma, in the experiment on RXF 393 renal, in the experiment on KM12 colon and in the experiment on HCT-116 colon was greater than 100 µM throughout. For the same compound, the TGI in the experiment with SK-MEL-2 melanoma, in the experiment on M14 melanoma, with SF-539 CNS, with 786-0 renal, in the experiment on ACHN renal and in the experiment with SK-MEL-5 melanoma was greater than 100 µM throughout. In addition, the TGI in the experiment with HT29 colon, in the experiment on SW-620 colon and in the experiment on NCI-H23 lung was greater than 100 µM throughout.

Consider `COC(=O)[C@@]1(C)/C(=N/NS(=O)(=O)c2ccc(C)cc2)CCC[C@@H]1C`, for which the TGI in the experiment with HCC-2998 colon, in the experiment with A498 renal, in the experiment with CAKI-1 renal, in the experiment on UACC-257 melanoma, with RXF 393 renal and in the experiment on KM12 colon was greater than 100 µM throughout. Moreover, the TGI in the experiment on HCT-116 colon, in the experiment on SK-MEL-2 melanoma, in the experiment with M14 melanoma, in the experiment on SF-539 CNS, with 786-0 renal and in the experiment with ACHN renal was greater than 100 µM in each case. Besides, the TGI in the experiment on SK-MEL-5 melanoma, in the experiment on HT29 colon and with NCI-H23 lung was greater than 100 µM throughout.

With `Cc1nn(C(=O)CC(=O)Nc2ccc(Cl)cc2)c(C)c1N=Nc1ccccc1C(=O)O`, the TGI in the experiment with HCC-2998 colon, in the experiment with A498 renal, in the experiment with CAKI-1 renal, with UACC-257 melanoma, in the experiment on KM12 colon and in the experiment with HCT-116 colon was greater than 100 µM in each case. Moreover, the TGI in the experiment on SK-MEL-2 melanoma, with M14 melanoma, in the experiment with SF-539 CNS, with 786-0 renal, in the experiment with SK-MEL-5 melanoma and in the experiment on HT29 colon was greater than 100 µM in each case. For the same compound, the TGI in the experiment on SW-620 colon and with NCI-H23 lung was greater than 100 µM throughout.

In the case of `CC1(C)CC(=O)CC(=Nc2ccc([N+](=O)[O-])cc2)C1`, the TGI with HCC-2998 colon is greater than 100 µM; in the experiment on A498 renal, greater than 100 µM; in the experiment with UACC-257 melanoma, greater than 100 µM; with RXF 393 renal it was greater than 100 µM; in the experiment with KM12 colon, greater than 100 µM; in the experiment on HCT-116 colon, 40.9 µM. Moreover, the TGI in the experiment with SK-MEL-2 melanoma, with M14 melanoma, in the experiment with 786-0 renal, in the experiment on ACHN renal, in the experiment with SK-MEL-5 melanoma and in the experiment on HT29 colon was greater than 100 µM in each case. The compound also came in with a TGI in the experiment on NCI-H23 lung greater than 100 µM.

As to `C=CCC1(CN(C)C)CC/C(=C\c2ccc(Cl)cc2)C1=O` (configuration not stated), the TGI in the experiment with HCC-2998 colon is greater than 70.5 µM; in the experiment with A498 renal, greater than 100 µM; in the experiment on CAKI-1 renal, greater than 100 µM; in the experiment on UACC-257 melanoma, 54.1 µM; in the experiment with RXF 393 renal, greater than 72.9 µM; in the experiment on KM12 colon it was greater than 78.5 µM. The TGI with HCT-116 colon was greater than 94.5 µM; with SK-MEL-2 melanoma, greater than 100 µM; in the experiment on M14 melanoma it was greater than 64.9 µM; with SF-539 CNS it was greater than 83.8 µM; with 786-0 renal, greater than 100 µM; in the experiment with ACHN renal, greater than 100 µM. Moreover, the TGI is greater than 79.1 µM in the experiment with SK-MEL-5 melanoma, 60.1 µM in the experiment on HT29 colon, greater than 76.2 µM with SW-620 colon and greater than 100 µM in the experiment on NCI-H23 lung.

Consider `C=C(C)C1CCC2(C)CC1c1c(c(C)cc3c1[nH]c1ccccc13)O2` (configuration not stated), for which the TGI in the experiment with HCC-2998 colon, with KM12 colon, in the experiment on HCT-116 colon, in the experiment on SK-MEL-2 melanoma, with M14 melanoma and with SF-539 CNS was greater than 25 µM in each case. Further, the TGI in the experiment on 786-0 renal, in the experiment on ACHN renal, with SK-MEL-5 melanoma, in the experiment on HT29 colon and with SW-620 colon was greater than 25 µM throughout.

In the case of `CC(Oc1ccc(OCC2CCCCC2)cc1)C(=O)OCC(=O)c1ccc(-c2ccccc2)cc1` (configuration not stated), the TGI in the experiment on HCC-2998 colon, in the experiment on A498 renal, with UACC-257 melanoma, in the experiment on RXF 393 renal, in the experiment with KM12 colon and in the experiment on HCT-116 colon was greater than 100 µM throughout. Moreover, the TGI in the experiment on SK-MEL-2 melanoma, with M14 melanoma, in the experiment with SF-539 CNS, in the experiment with 786-0 renal, in the experiment with ACHN renal and with SK-MEL-5 melanoma was greater than 100 µM in each case. The TGI in the experiment with HT29 colon and with NCI-H23 lung was greater than 100 µM in each case.

In the case of `COc1ccc(OC)c(/C=C(/C#N)c2ccccc2)c1`, the TGI with A498 renal is 83.8 µM; in the experiment with CAKI-1 renal it was greater than 100 µM; in the experiment on RXF 393 renal it was 38.7 µM; in the experiment on KM12 colon it was greater than 100 µM; in the experiment with HCT-116 colon, greater than 100 µM; with SK-MEL-2 melanoma, 54.7 µM. Moreover, the TGI with M14 melanoma is greater than 100 µM; in the experiment with SF-539 CNS, greater than 100 µM; in the experiment on 786-0 renal it was greater than 100 µM; in the experiment on ACHN renal, greater than 100 µM; in the experiment on SK-MEL-5 melanoma it was 94.5 µM; in the experiment on HT29 colon, greater than 100 µM. Further, the TGI in the experiment on SW-620 colon and with NCI-H23 lung was greater than 100 µM in each case.

The record behind these values is PubChem BioAssay (NCI).
